Where “and” joins values, the source holds several entries; their conditions need not be identical. Equal entries are not always repeated.
Assays:
hHINT2 = hHINT2 (Homo sapiens, UniProt Q9BX68); experiment: Time course simulation; type: biochemical
hHINT2 R99A [1] = target: T1, hHINT2 R99A (Homo sapiens, UniProt Q9BX68, R99A); experiment: Stopped-flow burst-phase adenylation kinetics, hHINT2 R99A; type: biochemical
hHINT1 WT [2] = settings: cited from earlier work
hHINT2 R99Q [3] = target: T2, hHINT2 R99Q (Homo sapiens, UniProt Q9BX68, R99Q); experiment: Stopped-flow burst-phase adenylation kinetics, hHINT2 R99Q; type: biochemical
T2 sequence (Q9BX68 37-163 R99Q limits assumed): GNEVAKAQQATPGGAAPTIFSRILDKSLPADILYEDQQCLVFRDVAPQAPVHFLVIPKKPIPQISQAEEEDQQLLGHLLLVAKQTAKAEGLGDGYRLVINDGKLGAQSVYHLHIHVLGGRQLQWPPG

hHINT2 WT [4] = target: T3, hHINT2 WT (Homo sapiens, UniProt Q9BX68); experiment: Stopped-flow burst-phase adenylation kinetics, hHINT2 WT; type: biochemical
T3 sequence (Q9BX68 37-163 limits assumed): as the sequence (Q9BX68 37-163 R99Q limits assumed) above, with Q63R counted along it

hHINT1 = hHINT1 (Homo sapiens, UniProt P49773); experiment: Time course simulation; type: biochemical
Chain of hHINT1 (P49773 whole entry): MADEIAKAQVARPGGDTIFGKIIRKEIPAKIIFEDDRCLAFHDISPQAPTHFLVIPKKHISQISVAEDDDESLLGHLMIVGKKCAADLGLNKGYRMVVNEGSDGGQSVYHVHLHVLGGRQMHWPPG

hHINT2 R99A [5] = target: T1, hHINT2 R99A; experiment: Steady-state kinetics assay; type: biochemical
hHINT2 R99Q [6] = target: T2, hHINT2 R99Q; experiment: Steady-state kinetics assay; type: biochemical; settings: steady-state 25 °C
hHINT1 Q62A [7] = target: T4, hHINT1 Q62A (Homo sapiens, UniProt P49773, Q62A); experiment: Stopped-flow burst-phase adenylation kinetics, hHINT1 Q62A; type: biochemical
T4 sequence (P49773 whole entry Q62A): as the sequence (P49773 whole entry) above, with Q62A counted along it

hHINT1 WT [8] = settings: steady-state 25 °C, cited from earlier work
hHINT1 Q62A [9] = target: T4, hHINT1 Q62A; experiment: Steady-state kinetics assay; type: biochemical
hHINT1 Q62R [10] = target: T5, hHINT1 Q62R (Homo sapiens, UniProt P49773, Q62R); experiment: Stopped-flow burst-phase adenylation kinetics, hHINT1 Q62R; type: biochemical
T5 sequence (P49773 whole entry Q62R): as the sequence (P49773 whole entry) above, with Q62R counted along it

hHINT1 Q62R [11] = target: T5, hHINT1 Q62R; experiment: Steady-state kinetics assay; type: biochemical; settings: steady-state 25 °C
hHINT2 WT [12] = target: T3, hHINT2 WT; experiment: Isothermal titration calorimetry, hHINT2 WT; type: binding
hHINT1 WT [13] = settings: ITC; cited from earlier work
hHINT2 R99Q [14] = target: T2, hHINT2 R99Q; experiment: Isothermal titration calorimetry, hHINT2 R99Q; type: binding
[15] = pH 7.2, read-out: k1, E+TpAd ⇆ E•TpAd
[16] = pH 7.2, read-out: k−1, E+TpAd ⇆ E•TpAd
[17] = time course simulation, 4.3 °C, hHINT2
[18] = time course simulation, 4.3 °C, hHINT2, k4 and k5 can be interchanged without altering the fit
[19] = time course simulation, 4.3 °C, hHINT1
[20] = time course simulation, 4.3 °C, hHINT1, k4 and k5 can be interchanged without altering the fit

T1 sequence (Q9BX68 37-163 R99A limits assumed): as the sequence (Q9BX68 37-163 R99Q limits assumed) above, with Q63A counted along it
Chain of hHINT2 (Q9BX68 37-163 limits assumed): as the sequence (Q9BX68 37-163 R99Q limits assumed) above, with Q63R counted along it

Nc1ncnc2c1ncn2[C@@H]1O[C@H](COP(=O)(O)NCCc2c[nH]c3ccccc23)[C@@H](O)[C@H]1O [TpAd, adenosine tryptamine phosphoramidate monoester]
fluorescence of bound TpAd relative to unquenched tryptamine (hHINT2; TpAd bound to hHINT2, constraint giving excellent simulations): ~ 75% | kon (hHINT2; [15]): > 5e+07 M⁻¹ s⁻¹ | koff (hHINT2; [16]): > 60 s⁻¹ | k2, E•TpAd ⇆ E-NMP•Tp (hHINT2; [17]): 60.8 ± 2.5 s⁻¹ | k3, E-NMP•Tp ⇆ E-NMP + Tp (hHINT2; [17]): >1640 s⁻¹ | k−2, E•TpAd ⇆ E-NMP•Tp (hHINT2; [17]): 0 | k−3, E-NMP•Tp ⇆ E-NMP + Tp (hHINT2; [17]): 0 | k−4, E-NMP + H20 ⇆ E’-NMP (hHINT2; [17]): 0 | k−5, E’-NMP ⇆ E + NMP (hHINT2; [17]): 0 | k4, E-NMP + H20 ⇆ E’-NMP (hHINT2; [18]): 1.34 s^−1 ± 0.14 s^−1 | k5, E’-NMP ⇆ E + NMP (hHINT2; [18]): >34 s⁻¹ | Kd (hHINT2 R99A [1]): 6 ± 0.47 µM | KD R99A/WT Ratio (hHINT2 R99A [1]; burst phase 4 °C, hHINT2): 1.10 | k2 R99A/WT Ratio (hHINT2 R99A [1]; burst phase 4 °C, hHINT2): 0.96 | k2 (adenylation rate constant) (hHINT2 R99A [1]; burst phase 4 °C, hHINT2 R99A): 86.4 ± 6.1 s⁻¹ | k2 (adenylation rate constant) (hHINT1 WT [2]; burst phase 25 °C): 203 s⁻¹ and 203 ± 13 s⁻¹ | Kd (hHINT1 WT [2]; read-out: KD (substrate binding), burst phase 25 °C): 13 ± 2 µM | Kd (hHINT2 R99Q [3]): 5.45 ± 0.6 µM | KD R99Q/WT Ratio (hHINT2 R99Q [3]; burst phase 4 °C, hHINT2): 1.00 | k2 R99Q/WT Ratio (hHINT2 R99Q [3]; burst phase 4 °C, hHINT2): 1.04 | k2 (adenylation rate constant) (hHINT2 R99Q [3]; burst phase 4 °C, hHINT2 R99Q): 93.2 ± 5.0 s⁻¹ | Kd (hHINT2 WT [4]): 5.44 ± 0.58 µM | k2 (adenylation rate constant) (hHINT2 WT [4]; burst phase 4 °C, hHINT2 WT): 89.7 s⁻¹ and 89.7 ± 5.1 s⁻¹ | kon (hHINT1; [15]): > 9.5e+06 M⁻¹ s⁻¹ | koff (hHINT1; [16]): > 60 s⁻¹ | k2, E•TpAd ⇆ E-NMP•Tp (hHINT1; [19]): 56.5 ± 2.5 s⁻¹ | k3, E-NMP•Tp ⇆ E-NMP + Tp (hHINT1; [19]): >2000 s⁻¹ | k−2, E•TpAd ⇆ E-NMP•Tp (hHINT1; [19]): 0 | k−3, E-NMP•Tp ⇆ E-NMP + Tp (hHINT1; [19]): 0 | k−4, E-NMP + H20 ⇆ E’-NMP (hHINT1; [19]): 0 | k−5, E’-NMP ⇆ E + NMP (hHINT1; [19]): 0 | k4, E-NMP + H20 ⇆ E’-NMP (hHINT1; [20]): 0.41 ± 0.03 s⁻¹ | k5, E’-NMP ⇆ E + NMP (hHINT1; [20]): >100 s⁻¹ | decrease in steady-state turnover, hHINT2 R99A vs wild-type (hHINT2 R99A [5]; steady-state): 2 fold | Km R99A/WT Ratio (hHINT2 R99A [5]; steady-state 25 °C, hHINT2): 0.75 | kcat R99A/WT Ratio (hHINT2 R99A [5]; steady-state 25 °C, hHINT2): 0.46 | kcat/Km R99A/WT Ratio (hHINT2 R99A [5]; steady-state 25 °C, hHINT2): 0.65 | Km R99Q/WT Ratio (hHINT2 R99Q [6]): 0.92 | kcat R99Q/WT Ratio (hHINT2 R99Q [6]): 1.04 | kcat/Km R99Q/WT Ratio (hHINT2 R99Q [6]): 1.18 | Kd (hHINT1 Q62A [7]): 4.9 ± 0.5 µM | k2 Q62A/WT Ratio (hHINT1 Q62A [7]; burst phase 25 °C, hHINT1): 0.85 | k2 (adenylation rate constant) (hHINT1 Q62A [7]; burst phase 25 °C, hHINT1 Q62A): 172 ± 6 s⁻¹ | Km (hHINT1 WT [8]): 0.13 ± 0.02 µM | kcat (hHINT1 WT [8]; substrate turnover): 2.1 ± 0.1 s⁻¹ | kcat decrease, hHINT1 Q62A vs wild-type (hHINT1 Q62A [9]; steady-state): 5 fold | Km Q62A/WT Ratio (hHINT1 Q62A [9]; steady-state 25 °C, hHINT1): 0.12 | kcat Q62A/WT Ratio (hHINT1 Q62A [9]; steady-state 25 °C, hHINT1): 0.21 | kcat/Km Q62A/WT Ratio (hHINT1 Q62A [9]; steady-state 25 °C, hHINT1): 1.87 | Kd (hHINT1 Q62R [10]): 2.9 ± 0.2 µM | KD Q62R/WT Ratio (hHINT1 Q62R [10]; burst phase 25 °C, hHINT1): 0.2 | k2 Q62R/WT Ratio (hHINT1 Q62R [10]; burst phase 25 °C, hHINT1): 0.89 | k2 (adenylation rate constant) (hHINT1 Q62R [10]; burst phase 25 °C, hHINT1 Q62R): 180 ± 9 s⁻¹ | kcat Q62R/WT Ratio (hHINT1 Q62R [11]): 0.67 | kcat/Km Q62R/WT Ratio (hHINT1 Q62R [11]): 0.73

O=C(CCc1c[nH]c2ccccc12)NS(=O)(=O)OC[C@H]1O[C@@H](n2cnc3c2ncn2ccnc32)[C@H](O)[C@@H]1O [Inhibitor 1]
Kd (hHINT2 WT [12]): 9.43 ± 0.45 µM | ΔH (hHINT2 WT [12]; ITC 25 °C, 10 mM Tris, 150 mM NaCl, pH 7.2, hHINT2 WT): -10.54 ± 0.16 kcal/mol | -TΔS (hHINT2 WT [12]; ITC 25 °C, pH 7.2, hHINT2 WT): 3.69 ± 0.17 kcal/mol | n (binding stoichiometry) (hHINT2 WT [12]; ITC 25 °C, pH 7.2, hHINT2 WT): 0.80 | ΔG (hHINT2 WT [12]; ITC 25 °C, pH 7.2, hHINT2 WT): -6.84 ± 0.32 kcal/mol | -TΔS (hHINT1 WT [13]): 8.19 ± 0.13 kcal/mol | Kd (hHINT2 R99Q [14]): 6.94 ± 0.51 µM | -TΔS (hHINT2 R99Q [14]; ITC 25 °C, pH 7.2, hHINT2 R99Q): 7.68 ± 0.55 kcal/mol | n (binding stoichiometry) (hHINT2 R99Q [14]; ITC 25 °C, pH 7.2, hHINT2 R99Q): 1.1 | ΔH (hHINT2 R99Q [14]; ITC 25 °C, pH 7.2, hHINT2 R99Q): -14.72 ± 0.10 kcal/mol
